Source: patent publication US11826355B1, “Aspirin-mimetic antioxidants for treatment of age-related cataract” (priority 2022, dated 2023)
“And” between values parts separate entries of the source, which are not always exact repeats. Equal entries are not always repeated.

Legend:
[1] = system: Wistar rat cataract model induced by sodium selenite; assay: Lens opacity score (slit lamp) in sodium selenite-induced cataract rat model; type: in vivo; parameters: lens opacity score, Mean / lens opacity score / lens opacity score, raw data per eye (OD/OS, rats 1-6): scale not given here; details: G1, 0.8 mg/15 mL, 10 μl 3 times/day
Protocol: A new batch of eye drops solutions was prepared every week. Placebo was a solution that contained the same excipients but without the drug compound. The eye drops solutions were prepared as follows:
3. An illustrative procedure: To a 250 mL volume flask were added 25 mg each of the excipients, sodium borate, boric acid, sodium chloride, and potassium chloride, an aspirin mimetic drug compound to be tested (e.g., DPL-004, 9.0 mg), and about 200 ml of sterilized water to form a mixture. The resultant mixture was shaken well to dissolve solids; and more sterilized water was added to bring the volume of solution to 250 mL, which was shaken well and then distributed into small portions. Each portion was labeled with a concentration of 3.6 mg/100 mL and the preparation date and was stored in a refrigerator for future use.
4. Eye drops solutions comprising DPL-004 at a concentration of 36 mg/100 mL and 12 mg/100 mL were prepared similarly according to the above procedure by using 90 mg and 30 mg of DPL-004, respectively, while maintaining the same amounts of excipients as shown above.
(§1) At the age of 11-12 days after birth, all suckling rats underwent a single intraperitoneal injection of sodium selenite (30 μmol/kg, i.e., 0.1 ml/10 g) for model-building. Sodium selenite solution was configured with normal saline at a concentration of 3 mM.
(§2) At the age of 19 days after birth (D-1) of the suckling rats, 30 lens opacities were selected for a cloudy rating at Class 4 or 5; Wister suckling rats were randomly divided into 5 groups (G1-G5 groups, 6 in each group); and a cage of suckling rats as G6 was randomly selected after the animals opened their eyes (14-16 days of age).
(§3) The subject suckling rats of groups G1 to G5 were treated at the age of 20 days after birth (D1), and the specific dosing information is shown in Table 1. Treatment in the G6 group was conducted after the animals opened their eyes (14-16 days old, D-6-D-4), and the specific dosing information is shown in Table 1.
At D-1, in the fourth week of treatment, the slit lamp was used at the end of administration to observe the turbidity of the lens and grade it, and the grading and scoring criteria are shown in the following Table 2.

[2] = Body weight of rats in the cataract model study; type: in vivo, rat; details: G1, 0.8 mg/15 mL, 10 μl 3 times/day
Protocol: as §1, §2, §3

[3] = General clinical observations during 60-day eye drop administration; type: in vivo, rat; details: eye drops 3 times/day, 60-day administration phase, all concentrations
From the text: as §2

[4] = system: acute ischemia stroke (AIS) and/or ALS; details: approved for acute ischemia stroke (AIS) and/or ALS; cited from earlier work
[5] = system: prostate cancer; details: 2008 SELECT RCT; cited from earlier work
[6] = system: lung cancer; details: 1994 ATBC RCT; cited from earlier work
[7] = pH about 6.4, day -1 (before administration)

## O=C(O)c1cc(O)c2c3nc4ccccc4oc-3cc(=O)c2n1 [Pirenoxine, reference compound]
[1]; pH about 6.4, day 28
  lens opacity score, Mean: 3.42
  lens opacity score, raw data per eye (OD/OS, rats 1-6): 3 and 4
[1]; pH about 6.4, day 60
  lens opacity score, Mean: 2.92
  lens opacity score, raw data per eye (OD/OS, rats 1-6): 2 and 4 and 3
[1]; [7]
  lens opacity score, Mean: 4.00
  lens opacity score, raw data per eye (OD/OS, rats 1-6): 4
[2]; pH about 6.4, day 4
  Body Weight, Mean: 57.07 g
[2]; pH about 6.4, day 11
  Body Weight, Mean: 96.02 g
[2]; pH about 6.4, day 18
  Body Weight, Mean: 133.87 g
[2]; pH about 6.4, day 25
  Body Weight, Mean: 163.00 g
[2]; pH about 6.4, day 32
  Body Weight, Mean: 197.18 g
[2]; pH about 6.4, day 39
  Body Weight, Mean: 219.45 g
[2]; pH about 6.4, day 46
  Body Weight, Mean: 239.75 g
[2]; pH about 6.4, day 53
  Body Weight, Mean: 255.82 g
[2]; pH about 6.4, day 60
  Body Weight, Mean: 270.00 g
[2]; [7]
  Body Weight, Mean: 43.48 g
[3]
  abnormal symptoms (activity status, body weight, skin hair, secretion morphology and color): no abnormal symptoms

## CC1=NN(c2ccccc2)C(=O)C1 [Edaravone]
[4]
  efficacy (marginal): 5%

## Cc1c(C)c2c(c(C)c1O)CC[C@@](C)(CCC[C@H](C)CCC[C@H](C)CCCC(C)C)O2 [Vitamin E]
[5]
  Adverse Effects: more prostate cancer: 17% more prostate

## CC1=C(/C=C/C(C)=C/C=C/C(C)=C/C=C/C=C(C)/C=C/C=C(C)/C=C/C2=C(C)CCCC2(C)C)C(C)(C)CCC1 [Beta-carotene only, Beta-carotene]
[6]
  Adverse Effects: more lung cancer: 18% more lung
